Laboratory results from US20060280817A1, “Pharmaceutical composition useful for the treatment of hepatocellular carcinoma” (priority 2005, published 2006).

Key:
[1] = system: KB; assay: In vitro cytotoxicity (SRB), KB; assay type: cell-based, human; settings: 2 × 10^−5 M, 48 h
Protocol: (§1) The human cancer cell lines procured from National Cancer Institute, Frederick, U.S.A or National Center for Cell Science; Pune, India. were used in present study. Cells were grown in tissue culture flasks in complete growth medium (RPMI-1640 medium with 2 mM glutamine, 100 μg/ml streptomycin, pH 7.4, sterilized by filtration and supplemented with 10% fetal calf serum and 100 units/ml penicillin before use) at 37° C. in an atmosphere of 5% CO2 and 90% relative humidity in a carbon dioxide incubator. The cells at subconfluent stage were harvested from the flask by treatment with trypsin (0.5% in PBS containing 0.02% EDTA) for determination of cytotoxicity. Cells with viability of more than 98% as determined by trypan blue exclusion were used for assay. […]
(§2) A stock solutions of (20 mg/ml) of test material were prepared in distilled water. […] In vitro cytotoxicity against human cancer cell lines was determined (Monks, A., Scudiero, D., Skehan, P., Shoemaker R., Paull, K., Vistica, D., Hose, C., Langley, j., Cronise, P., Vaigro-Wolff, A., Gray-Goodrich, M., Campbell, H., Mayo, J and Boyd, M. (1991). Feasibility of a high-flux anticancer drug screen using a diverse panel of cultured human tumor cell lines. J. Natl. Cancer Inst. 83, 757-766.) using 96-well tissue culture plates. […] The optical density (OD) was recorded on ELISA reader at 540 nm. […]

[2] = system: HCT 15; assay: In vitro cytotoxicity (SRB), HCT 15; assay type: cell-based, human; settings: 48 h
Protocol: (§3) The human cancer cell lines procured from National Cancer Institute, Frederick, U.S.A or National Center for Cell Science; Pune, India. were used in present study. Cells were grown in tissue culture flasks in complete growth medium (RPMI-1640 medium with 2 mM glutamine, 100 μg/ml streptomycin, pH 7.4, sterilized by filtration and supplemented with 10% fetal calf serum and 100 units/ml penicillin before use) at 37° C. in an atmosphere of 5% CO2 and 90% relative humidity in a carbon dioxide incubator. The cells at subconfluent stage were harvested from the flask by treatment with trypsin (0.5% in PBS containing 0.02% EDTA) for determination of cytotoxicity. Cells with viability of more than 98% as determined by trypan blue exclusion were used for assay. The cell suspension of the required cell density was prepared in complete growth medium with gentamycin (50 μg/ml) for determination of cytotoxicity.
(§4) A stock solutions of (20 mg/ml) of test material were prepared in distilled water. The stock solutions were serially diluted with complete growth medium containing 50 μg/ml of gentamycin to obtain working test solutions of required concentrations. In vitro cytotoxicity against human cancer cell lines was determined (Monks, A., Scudiero, D., Skehan, P., Shoemaker R., Paull, K., Vistica, D., Hose, C., Langley, j., Cronise, P., Vaigro-Wolff, A., Gray-Goodrich, M., Campbell, H., Mayo, J and Boyd, M. (1991). Feasibility of a high-flux anticancer drug screen using a diverse panel of cultured human tumor cell lines. J. Natl. Cancer Inst. 83, 757-766.) using 96-well tissue culture plates. The 100 μl of cell suspension was added to each well of the 96-well tissue culture plate. The cells were incubated for 24 hours. Test materials in complete growth medium (100 μl) were added after 24 hours incubation to the wells containing cell suspension. The plates were further incubated for 48 hours (at 37° C. in an atmosphere of […] 90% relative humidity in a carbon dioxide incubator) after addition of test material and then the cell growth was stopped by gently layering trichloroacetic acid (TCA, 50 μl, 50%) on top of the medium in all the wells. The plates were incubated at 4° C. for one hour to fix the cells attached to the bottom of the wells. The liquid of all the wells was gently pipetted out and discarded. The plates were washed five times with distilled water to remove TCA, growth medium low molecular weight metabolites, serum proteins etc and air-dried. Cell growth was measured by staining with sulforhodamine B dye (P. Skehan, R. Storeng, D. Scudiero, A. Monks, J. McMohan, D. Vistica, J. T. Warren, H. Bokesch, S. Kenney, M. R. Boyd (1990) New colorimetric cytotoxic Assay for Anticancer—Drug Screening Journal of the National Cancer Institute 82, 1107-1112). The adsorbed dye was dissolved in Tris-Buffer (100 μl, 0.01M, pH 10.4) and plates were gently stirred for 5 minutes on a mechanical stirrer. The optical density (OD) was recorded on ELISA reader at 540 nm.
(§5) The cell growth was calculated by subtracting mean OD value of respective blank from the mean OD value of experimental set. Percent growth in presence of test material was calculated considering the growth in absence of any test material as 100% and in turn percent growth inhibition in presence of test material will be calculated.
(§6) Methodology is the same as given in example 6 except for stock solutions of 1×10^−2M was prepared instead of 20 mg/ml.

[3] = system: MCF-7; assay: In vitro cytotoxicity (SRB), MCF-7; assay type: cell-based; settings: Homo sapiens, MCF7; MCF-7, 1 × 10^−5 M, 48 h; read-out: percent growth inhibition
Protocol: as §1, §2

[4] = system: HT 29; assay: In vitro cytotoxicity (SRB), HT 29; assay type: cell-based, human; settings: 48 h
Protocol: as §3, §4, §5, §6

[5] = system: SW 620; assay: In vitro cytotoxicity (SRB), SW 620; assay type: cell-based, human; settings: 48 h
Protocol: as §3, §4, §5, §6

[6] = system: ZR 75-1; assay: In vitro cytotoxicity (SRB), ZR 75-1; assay type: cell-based; settings: Homo sapiens; ZR 75-1, 1 × 10^−5 M, 48 h; read-out: percent growth inhibition
Protocol: as §1, §2

[7] = system: SK N SH; assay: In vitro cytotoxicity (SRB), SK N SH; assay type: cell-based, human; settings: 48 h
Protocol: as §3, §4, §5, §6

[8] = system: T 47 D; assay: In vitro cytotoxicity (SRB), T 47 D; assay type: cell-based; settings: Homo sapiens, T47D, 1 × 10^−5 M, 48 h, read-out: percent growth inhibition
Protocol: as §1, §2

[9] = system: NIH OVCAR5; assay: In vitro cytotoxicity (SRB), NIH OVCAR5; assay type: cell-based; settings: Homo sapiens, OVCAR-5; NIH OVCAR5, 1 × 10^−5 M, 48 h; read-out: percent growth inhibition
Protocol: as §1, §2

[10] = system: SNB 78; assay: In vitro cytotoxicity (SRB), SNB 78; assay type: cell-based, human; settings: SNB 78, 1 × 10^−5 M, 48 h
Protocol: as §1, §2

[11] = system: IMR 32; assay: In vitro cytotoxicity (SRB), IMR 32; assay type: cell-based, human; settings: IMR 32, 1 × 10^−5 M, 48 h
Protocol: as §1, §2

[12] = system: SiHa; assay: In vitro cytotoxicity (SRB), SiHa; assay type: cell-based, human; settings: 48 h
Protocol: as §3, §4, §5, §6

[13] = system: HOP-62; assay: In vitro cytotoxicity (SRB), HOP-62; assay type: cell-based, human; settings: 48 h
Protocol: as §3, §4, §5, §6

[14] = system: Colo 205; assay: In vitro cytotoxicity (SRB), Colo 205; assay type: cell-based, human; settings: 48 h
Protocol: as §3, §4, §5, §6

[15] = system: DU 145; assay: In vitro cytotoxicity (SRB), DU 145; assay type: cell-based, human; settings: DU 145, 1 × 10^−5 M, 48 h
Protocol: as §1, §2

[16] = system: NCI-H23; assay: In vitro cytotoxicity (SRB), NCI-H23; assay type: cell-based, human; settings: NCI-H23, 1 × 10^−5 M, 48 h
Protocol: as §1, §2

[17] = system: NIH OVCAR 3; assay: In vitro cytotoxicity (SRB), NIH OVCAR 3; assay type: cell-based, human; settings: NIH OVCAR 3, 1 × 10^−5 M, 48 h
Protocol: as §1, §2

[18] = system: A 549; assay: In vitro cytotoxicity (SRB), A 549; assay type: cell-based, human; settings: A 549, 1 × 10^−5 M, 48 h
Protocol: as §1, §2

[19] = system: SK N MC; assay: In vitro cytotoxicity (SRB), SK N MC; assay type: cell-based; settings: Homo sapiens, 1 × 10^−5 M, 48 h, read-out: percent growth inhibition
Protocol: as §1, §2

## O=c1[nH]cc(F)c(=O)[nH]1 [5-Flurouracil, reference compound]
[1]
  percent growth inhibition: 9%
[2]; HCT 15, 2 × 10^−5 M
  percent growth inhibition: 50%

## COc1cccc2c1C(=O)c1c(O)c3c(c(O)c1C2=O)C[C@@](O)(C(=O)CO)C[C@@H]3O[C@H]1C[C@H](N)[C@H](O)[C@H](C)O1 [Adriamycin]
[3]
  inhibition: 72%
[4]; HT 29, 1 × 10^−5 M
  percent growth inhibition: 69%
[5]; SW 620, 1 × 10^−5 M
  percent growth inhibition: 59%
[6]
  inhibition: 46%
[7]; Homo sapiens, SK N SH, 1 × 10^−5 M, read-out: percent growth inhibition
  inhibition at 10 µM: 82%
[8]
  inhibition: 34%
[9]
  inhibition: 45%
[10]
  percent growth inhibition: 20%
[11]
  percent growth inhibition: 87%

## O=C1C[C@@H](c2ccc(O)c(O[C@@H]3O[C@H](CO)[C@@H](O)[C@H](O)[C@H]3O)c2)Oc2cc(O[C@@H]3O[C@H](CO)[C@@H](O)[C@H](O)[C@H]3O)ccc21 [Butrin]
[12]; 1 × 10^−4 M
  percent growth inhibition: 80%
[12]; 1 × 10^−5 M
  percent growth inhibition: 0%
[12]; 1 × 10^−6 M
  percent growth inhibition: 0%
[13]; HOP-62, 1 × 10^−4 M
  percent growth inhibition: 65%
[13]; HOP-62, 1 × 10^−5 M
  percent growth inhibition: 6%
[13]; HOP-62, 1 × 10^−6 M
  percent growth inhibition: 0%
[4]; HT 29, 1 × 10^−5 M
  percent growth inhibition: 11%
[4]; HT-29, 1 × 10^−4 M
  percent growth inhibition: 99%
[4]; HT-29, 1 × 10^−6 M
  percent growth inhibition: 9%
[2]; HCT-15, 1 × 10^−4 M
  percent growth inhibition: 98%
[2]; HCT-15, 1 × 10^−5 M
  percent growth inhibition: 26%
[2]; HCT-15, 1 × 10^−6 M
  percent growth inhibition: 0%
[5]; SW620, 1 × 10^−4 M
  percent growth inhibition: 92%
[5]; SW 620, 1 × 10^−5 M
  percent growth inhibition: 0%
[5]; SW620, 1 × 10^−6 M
  percent growth inhibition: 0%
[7]; SK N SH, 1 × 10^−5 M
  percent growth inhibition: 8%
[7]; SK-NSH, 1 × 10^−4 M
  percent growth inhibition: 83%
[7]; SK-NSH, 1 × 10^−6 M
  percent growth inhibition: 9%
[14]; Colo-205, 1 × 10^−4 M
  percent growth inhibition: 40%
[14]; Colo-205, 1 × 10^−5 M
  percent growth inhibition: 0%
[14]; Colo-205, 1 × 10^−6 M
  percent growth inhibition: 0%

## O=C(/C=C/c1ccc(O)c(O[C@@H]2O[C@H](CO)[C@@H](O)[C@H](O)[C@H]2O)c1)c1ccc(O[C@@H]2O[C@H](CO)[C@@H](O)[C@H](O)[C@H]2O)cc1O [Isobutrin]
[12]; 1 × 10^−4 M
  percent growth inhibition: 50%
[12]; 1 × 10^−5 M
  percent growth inhibition: 0%
[12]; 1 × 10^−6 M
  percent growth inhibition: 0%
[13]; HOP-62, 1 × 10^−4 M
  percent growth inhibition: 65%
[13]; HOP-62, 1 × 10^−5 M
  percent growth inhibition: 0%
[13]; HOP-62, 1 × 10^−6 M
  percent growth inhibition: 0%
[4]; HT 29, 1 × 10^−5 M
  percent growth inhibition: 10%
[4]; HT-29, 1 × 10^−4 M
  percent growth inhibition: 94%
[4]; HT-29, 1 × 10^−6 M
  percent growth inhibition: 0%
[2]; HCT-15, 1 × 10^−4 M
  percent growth inhibition: 99%
[2]; HCT-15, 1 × 10^−5 M
  percent growth inhibition: 21%
[2]; HCT-15, 1 × 10^−6 M
  percent growth inhibition: 0%
[5]; SW620, 1 × 10^−4 M
  percent growth inhibition: 85%
[5]; SW 620, 1 × 10^−5 M
  percent growth inhibition: 0%
[5]; SW620, 1 × 10^−6 M
  percent growth inhibition: 0%
[7]; SK N SH, 1 × 10^−5 M
  percent growth inhibition: 25%
[7]; SK-NSH, 1 × 10^−4 M
  percent growth inhibition: 93%
[7]; SK-NSH, 1 × 10^−6 M
  percent growth inhibition: 0%
[14]; Colo-205, 1 × 10^−4 M
  percent growth inhibition: 74%
[14]; Colo-205, 1 × 10^−5 M
  percent growth inhibition: 0%
[14]; Colo-205, 1 × 10^−6 M
  percent growth inhibition: 0%

## CO[C@@]12[C@H](COC(N)=O)C3=C(C(=O)C(C)=C(N)C3=O)N1C[C@@H]1N[C@@H]12 [Mitomycin C]
[15]
  percent growth inhibition: 69%
[11]
  percent growth inhibition: 83%
[16]
  percent growth inhibition: 59%
[17]
  percent growth inhibition: 31%

## CC/C(=C(\c1ccccc1)c1ccc(OCCN(C)C)cc1)c1ccccc1 [Tamoxifen]
[18]
  percent growth inhibition: 17%
[19]
  inhibition: 27%
[9]
  inhibition: 20%
